Test results taken from article PMC2954458 (Biochemistry, 2010).

Target: Pdr5 (Saccharomyces cerevisiae, UniProt P33302)
Experiment: ATPase assay, purified plasma membrane vesicles, Δpdr5 background subtracted
Format: biochemical
Conditions: 100 mM MOPS pH 7.4, 50 mM KCl, 10 mM MgCl2, 5 mM NaN3, 35 °C

Pdr5, sequence (P33302 whole entry): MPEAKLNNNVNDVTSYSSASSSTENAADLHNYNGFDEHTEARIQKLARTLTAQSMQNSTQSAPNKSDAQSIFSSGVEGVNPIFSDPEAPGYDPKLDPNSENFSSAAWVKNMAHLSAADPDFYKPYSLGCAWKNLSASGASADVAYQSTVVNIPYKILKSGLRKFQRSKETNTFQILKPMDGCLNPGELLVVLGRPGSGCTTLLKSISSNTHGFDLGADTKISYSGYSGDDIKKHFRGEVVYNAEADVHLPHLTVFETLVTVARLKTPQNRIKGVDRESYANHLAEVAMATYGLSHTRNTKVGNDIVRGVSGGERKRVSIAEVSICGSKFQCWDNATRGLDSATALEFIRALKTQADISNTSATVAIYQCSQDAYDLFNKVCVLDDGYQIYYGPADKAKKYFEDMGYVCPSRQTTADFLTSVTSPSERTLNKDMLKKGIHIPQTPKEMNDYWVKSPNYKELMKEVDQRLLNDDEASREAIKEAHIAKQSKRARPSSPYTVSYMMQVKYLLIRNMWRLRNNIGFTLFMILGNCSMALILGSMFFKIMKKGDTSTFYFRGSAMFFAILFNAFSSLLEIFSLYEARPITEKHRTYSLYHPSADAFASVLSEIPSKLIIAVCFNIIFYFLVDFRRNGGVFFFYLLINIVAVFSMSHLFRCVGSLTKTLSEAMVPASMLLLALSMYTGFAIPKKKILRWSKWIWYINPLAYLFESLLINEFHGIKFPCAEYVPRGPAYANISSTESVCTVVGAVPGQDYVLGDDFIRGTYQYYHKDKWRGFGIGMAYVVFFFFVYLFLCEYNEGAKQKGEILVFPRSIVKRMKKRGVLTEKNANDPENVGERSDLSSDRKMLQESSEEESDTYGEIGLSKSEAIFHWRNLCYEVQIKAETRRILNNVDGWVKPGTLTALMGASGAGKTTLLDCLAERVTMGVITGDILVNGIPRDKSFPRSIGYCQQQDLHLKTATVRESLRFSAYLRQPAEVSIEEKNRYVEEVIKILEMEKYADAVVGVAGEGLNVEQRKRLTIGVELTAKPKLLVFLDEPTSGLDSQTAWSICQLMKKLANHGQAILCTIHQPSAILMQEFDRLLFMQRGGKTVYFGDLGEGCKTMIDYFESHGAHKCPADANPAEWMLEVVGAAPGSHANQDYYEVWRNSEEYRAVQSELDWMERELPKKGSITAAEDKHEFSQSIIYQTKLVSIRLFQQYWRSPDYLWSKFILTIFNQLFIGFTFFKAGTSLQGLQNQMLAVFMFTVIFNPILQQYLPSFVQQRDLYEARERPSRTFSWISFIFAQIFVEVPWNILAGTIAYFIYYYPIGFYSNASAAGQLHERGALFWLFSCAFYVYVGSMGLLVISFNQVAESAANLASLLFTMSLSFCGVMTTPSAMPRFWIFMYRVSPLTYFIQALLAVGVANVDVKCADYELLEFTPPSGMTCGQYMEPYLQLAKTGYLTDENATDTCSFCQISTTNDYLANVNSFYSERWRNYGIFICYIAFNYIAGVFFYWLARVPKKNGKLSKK

**Q.** How did the Km turn out when `Nc1ncnc2c1ncn2[C@@H]1O[C@H](COP(=O)(O)OP(=O)(O)OP(=O)(O)O)[C@@H](O)[C@H]1O` [ATP] was run?
**A.** There was little or no difference in the observed Kms
